In ChEMBL document CHEMBL4842385, “Indirubin Derivatives as Dual Inhibitors Targeting Cyclin-Dependent Kinase and Histone Deacetylase for Treating Cancer” (J Med Chem, 2021):
Calls of active or inactive are those of the source. The calls are words filed in the database; no cut-off is given here.

How the values were obtained:
[1] = biological target: T1, Protein deacetylase HDAC6 (Homo sapiens) (UniProt Q9UBN7); assay: Inhibition of HDAC6 in human A549 cells assessed as accumulation of acetylation of H3 at 1 to 10 uM measured after 48 hrs by Western blot analysis; format: cell-based; settings: dose 1-10 µM
T1 sequence (whole entry): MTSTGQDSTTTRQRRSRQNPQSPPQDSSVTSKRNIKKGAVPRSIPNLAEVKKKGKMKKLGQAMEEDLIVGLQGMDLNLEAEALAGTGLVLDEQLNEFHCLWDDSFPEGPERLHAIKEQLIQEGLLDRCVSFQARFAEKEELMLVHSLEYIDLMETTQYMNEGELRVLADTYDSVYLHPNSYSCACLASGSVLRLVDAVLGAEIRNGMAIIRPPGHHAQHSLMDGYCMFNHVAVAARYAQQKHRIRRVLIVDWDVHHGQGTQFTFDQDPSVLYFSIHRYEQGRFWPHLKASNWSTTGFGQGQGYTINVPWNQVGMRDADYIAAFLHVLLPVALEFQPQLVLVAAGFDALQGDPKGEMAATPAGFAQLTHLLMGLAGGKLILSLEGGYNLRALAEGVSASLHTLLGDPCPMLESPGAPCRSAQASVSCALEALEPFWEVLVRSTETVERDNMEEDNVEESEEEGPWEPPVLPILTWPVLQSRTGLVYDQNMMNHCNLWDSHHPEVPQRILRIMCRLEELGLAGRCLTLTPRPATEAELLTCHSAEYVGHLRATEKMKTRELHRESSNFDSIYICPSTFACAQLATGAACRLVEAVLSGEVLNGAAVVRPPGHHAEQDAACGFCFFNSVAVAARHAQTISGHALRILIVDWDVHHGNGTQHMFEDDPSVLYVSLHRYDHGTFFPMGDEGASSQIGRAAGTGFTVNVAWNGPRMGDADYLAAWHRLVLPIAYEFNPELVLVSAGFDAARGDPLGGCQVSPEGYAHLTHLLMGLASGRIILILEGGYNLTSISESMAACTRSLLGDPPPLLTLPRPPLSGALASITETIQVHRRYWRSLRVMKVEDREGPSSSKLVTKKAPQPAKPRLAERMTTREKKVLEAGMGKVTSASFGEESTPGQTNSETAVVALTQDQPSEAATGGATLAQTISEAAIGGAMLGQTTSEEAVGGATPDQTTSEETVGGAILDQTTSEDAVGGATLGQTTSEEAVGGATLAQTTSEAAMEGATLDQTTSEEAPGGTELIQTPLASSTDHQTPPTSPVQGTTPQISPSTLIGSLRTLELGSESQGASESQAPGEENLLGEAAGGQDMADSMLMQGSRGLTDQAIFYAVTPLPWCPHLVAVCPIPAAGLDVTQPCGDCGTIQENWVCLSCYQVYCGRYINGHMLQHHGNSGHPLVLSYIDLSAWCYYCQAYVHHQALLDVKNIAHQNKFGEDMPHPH

A549 [2] = assay: Antitumor activity against human A549 cells xenografted in BALB/c nude mouse assessed as tumor growth inhibition at 50 mg/kg, iv administered for 21 consecutive days relative to control; format: functional; settings: 504 h, time 21 day, read-out: TGI
A549 [3] = assay: Antitumor activity against human A549 cells xenografted in BALB/c nude mouse assessed as reduction in tumor weight at 0.75 to 1.5 mg, IT (intratumoral) administered for 21 consecutive days; format: functional, cell-based; settings: dose 0.75-1.5 mg, time 21.0 day
[4] = Toxicity in BALB/c nude mouse xenografted with human A549 cells assessed as body weight loss at 25 to 50 mg/kg, iv administered for 21 consecutive days; format: organism-based; settings: in vivo, 504 h, dose 25-50 mg/kg, time 21 day
[5] = biological target: T1, Protein deacetylase HDAC6 (Homo sapiens); assay: Inhibition of HDAC6 in human A549 cells assessed as increase in alpha tubulin acetylation measured after 48 hrs by Western blot analysis; format: cell-based; settings: dose 1-10 µM
[6] = biological target: T1, Protein deacetylase HDAC6 (Homo sapiens); assay: Inhibition of HDAC6 in human A549 cells assessed as accumulation of acetylation of H4 at 1 to 10 uM measured after 48 hrs by Western blot analysis; format: cell-based; settings: dose 1-10 µM
[7] = Bioavailability in Sprague-Dawley rat at 50 mg/kg, ip measured up to 24 hrs by LC-MS analysis; format: ADME, organism-based; settings: in vivo
[8] = Toxicity in iv dosed BALB/c nude mouse assessed as maximum tolerated dose administered once daily for 5 consecutive days; format: organism-based; settings: in vivo, time 5 day
K562 = assay: Induction of apoptosis in human K562 cells measured after 48 hrs by Annexin-V/FITC-propidium iodide staining based flow cytometry analysis; format: functional, cell-based; settings: dose 2.5-10 µM
MCF7 [9] = assay: Cycle arrest in human MCF7 cells assessed as increase in cell population at S phase measured after 24 hrs by propidium iodide/RNase staining based flow cytometry; format: functional; settings: dose 2.5-10 µM
A549 [10] = assay: Induction of apoptosis in human A549 cells assessed as downregulation of […] protein measured after 48 hrs by Western blot analysis; format: functional, cell-based; settings: dose 1-10 µM
A549 [11] = assay: Induction of apoptosis in human A549 cells assessed as increase in PARP cleavage measured after 48 hrs by Western blot analysis; format: functional, cell-based; settings: dose 1-10 µM
[12] = Toxicity in BALB/c nude mouse xenografted with human A549 cells assessed as body weight loss at 0.75 to 1.5 mg, IT(intratumoral) administered for 21 consecutive days; settings: in vivo, other, 504 h, dose 0.75-1.5 mg, time 21 day
[13] = biological target: T1, Protein deacetylase HDAC6 (Homo sapiens); assay: Inhibition of HDAC6 in human A549 cells assessed as increase in alpha tubulin acetylation at 10 uM incubated for 24 hrs followed by compound washout by DAPI staining based immunofluorescence assay; format: cell-based
[14] = Toxicity in BALB/c nude mouse xenografted with human A549 cells assessed as adverse effect at 25 to 50 mg/kg, iv administered for 21 consecutive days; format: organism-based; settings: in vivo, 504 h, dose 25-50 mg/kg, time 21 day
MCF7 [15] = assay: Induction of apoptosis in human MCF7 cells measured after 48 hrs by Annexin-V/FITC-propidium iodide staining based flow cytometry analysis; format: functional, cell-based; settings: dose 2.5-10 µM
[16] = biological target: Cyclin-dependent kinase 2/4/6 (Homo sapiens) (UniProt P11802+P24941+Q00534); assay: Inhibition of CDK2/4/6 in human A549 cells assessed as decrease in Rb phosphorylation measured after 48 hrs by Western blot analysis; format: cell-based; settings: dose 1-10 µM
[17] = biological target: Protein deacetylase HDAC6 (Mus musculus) (UniProt Q9Z2V5); assay: In vivo inhibition of HDAC6 in BALB/c nude mouse xenografted with human A549 cells assessed as increase in alpha tubulin acetylation at 25 to 50 mg/kg, iv administered for 21 consecutive days by immunohistochemical analysis; format: functional, organism-based; settings: dose 25-50 mg/kg, time 21.0 day
HeLa = assay: Potency index, ratio of SAHA IC50 to test compound IC50 for antiproliferative activity against human HeLa cells assessed as cell growth inhibition measured after 48 hrs by CCK8 assay; format: functional
A549 [18] = assay: Potency index, ratio of SAHA IC50 to test compound IC50 for antiproliferative activity against human A549 cells assessed as cell growth inhibition measured after 48 hrs by CCK8 assay; format: functional
A549 [19] = assay: Antitumor activity against human A549 cells xenografted in BALB/c nude mouse assessed as reduction in tumor weight at 25 to 50 mg/kg, iv administered for 21 consecutive days; format: functional, organism-based; settings: dose 25-50 mg/kg, time 21.0 day
[20] = biological target: T1, Protein deacetylase HDAC6 (Homo sapiens); assay: Inhibition of HDAC6 in human K562 cells assessed as increase in alpha tubulin acetylation measured after 48 hrs by Western blot analysis; format: cell-based; settings: dose 1-10 µM

Sequence of Protein deacetylase HDAC6 (Mus musculus) (Q9Z2V5 whole entry): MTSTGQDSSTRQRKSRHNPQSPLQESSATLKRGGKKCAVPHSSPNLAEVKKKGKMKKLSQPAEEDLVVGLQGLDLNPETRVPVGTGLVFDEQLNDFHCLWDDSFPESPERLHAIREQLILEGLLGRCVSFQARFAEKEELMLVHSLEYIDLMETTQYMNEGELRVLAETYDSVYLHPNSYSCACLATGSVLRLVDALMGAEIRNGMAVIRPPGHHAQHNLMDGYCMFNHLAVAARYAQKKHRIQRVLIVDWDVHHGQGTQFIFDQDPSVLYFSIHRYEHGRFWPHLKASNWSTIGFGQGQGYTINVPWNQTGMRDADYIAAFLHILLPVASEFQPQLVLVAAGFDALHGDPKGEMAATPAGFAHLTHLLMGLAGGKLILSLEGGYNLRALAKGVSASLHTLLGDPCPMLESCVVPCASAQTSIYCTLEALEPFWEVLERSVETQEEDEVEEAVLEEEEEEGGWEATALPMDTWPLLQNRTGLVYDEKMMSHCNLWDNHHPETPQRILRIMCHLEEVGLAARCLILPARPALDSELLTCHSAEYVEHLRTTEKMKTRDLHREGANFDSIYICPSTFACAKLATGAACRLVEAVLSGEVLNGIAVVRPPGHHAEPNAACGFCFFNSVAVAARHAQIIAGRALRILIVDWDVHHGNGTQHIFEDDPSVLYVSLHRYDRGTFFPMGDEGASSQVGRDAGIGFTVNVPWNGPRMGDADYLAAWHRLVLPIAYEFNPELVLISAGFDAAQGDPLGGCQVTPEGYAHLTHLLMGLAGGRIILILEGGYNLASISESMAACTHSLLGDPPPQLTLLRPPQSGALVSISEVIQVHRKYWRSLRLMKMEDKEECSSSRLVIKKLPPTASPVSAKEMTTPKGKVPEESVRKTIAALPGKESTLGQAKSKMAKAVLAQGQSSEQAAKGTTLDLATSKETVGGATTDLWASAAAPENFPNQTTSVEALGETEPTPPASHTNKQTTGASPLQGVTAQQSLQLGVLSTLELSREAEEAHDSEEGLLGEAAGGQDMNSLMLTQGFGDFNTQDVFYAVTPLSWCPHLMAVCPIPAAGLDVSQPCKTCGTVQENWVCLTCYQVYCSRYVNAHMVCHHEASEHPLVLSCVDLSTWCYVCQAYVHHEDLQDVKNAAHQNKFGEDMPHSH

In the case of `O=C(CCCO/N=C1/C(=C2/C(=O)Nc3ccccc32)Nc2ccccc21)NO`, the inhibition [1] is reported as “inactive”, the inhibition in vivo at 50 mg/kg (A549 [2]) is reported as 66.6% and the Activity (A549 [3]) is reported as “Active”. The Activity [4] was “Non-Toxic”, the inhibition [5] was “Dose-Dependent Effect” and the inhibition [6] was “inactive”. The bioavailability [7] was 13%, the MTD at 120 h [8] was no more than 200 mg/kg and the Activity (K562) was “Dose-Dependent Effect”. For the same molecule, the Activity (MCF7 [9]) was “Dose-Dependent Effect”, the Activity (A549 [10]) was “Dose-Dependent Effect” and the Activity (A549 [11]) was “Dose-Dependent Effect”. The Activity [12] was “Non-Toxic”, the inhibition [13] was “Active” and the Activity [14] was “Non-Toxic”. The Activity (MCF7 [15]) was “Dose-Dependent Effect”, the inhibition [16] was “Dose-Dependent Effect” and the inhibition [17] was “Active”. For the same molecule, the “Ratio IC50” value (HeLa) was 3, the “Ratio IC50” value (A549 [18]) was 3 and the Activity (A549 [19]) was “Active”. For the same molecule, the inhibition [20] was “Dose-Dependent Effect”.
